{"source": "patent US10774122B2", "about": "“ERG targeted therapy” (The Regents of the University of Michigan, priority 2017, dated 2020)", "key": {"[1]": {"molecular_target": "T1, ERG (Homo sapiens, UniProt P11308)", "T1 sequence (P11308 1-479)": "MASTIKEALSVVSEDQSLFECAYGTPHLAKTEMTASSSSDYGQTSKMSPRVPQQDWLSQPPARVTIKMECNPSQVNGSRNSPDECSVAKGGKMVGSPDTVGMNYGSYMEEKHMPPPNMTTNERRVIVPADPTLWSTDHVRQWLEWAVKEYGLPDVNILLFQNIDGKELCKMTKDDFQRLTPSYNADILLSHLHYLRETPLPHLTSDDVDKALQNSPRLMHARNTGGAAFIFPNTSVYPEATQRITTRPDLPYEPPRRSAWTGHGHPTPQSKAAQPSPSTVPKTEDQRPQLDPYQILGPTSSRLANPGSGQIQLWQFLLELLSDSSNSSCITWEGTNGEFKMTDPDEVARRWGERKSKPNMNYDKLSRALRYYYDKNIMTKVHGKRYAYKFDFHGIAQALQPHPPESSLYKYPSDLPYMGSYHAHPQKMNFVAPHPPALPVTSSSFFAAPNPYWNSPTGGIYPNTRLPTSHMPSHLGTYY", "assay": "ERG:peptide binding by biolayer interferometry (OctetRED)", "quoted_text": "The interaction coefficients between ERG and synthetic peptides or peptidomimetics were determined by biolayer interferometry technology using the Octet Red system (ForteBio). Purified ERG and GUS proteins were biotinylated by EZLink NHS-PEG4 Biotinylation Kit (Thermo Scientific) following the manufacturer's protocol and any unincorporated biotin was removed from the reactions with Zeba 2 ml desalt columns (Thermo). Biotinylated proteins (500 μg/ml) were then incubated with super streptavidin biosensors in binding buffer (20 mM HEPES pH 7.4, 150 mM NaCl), blocked with 10 μg/ml biocytin and washed three times in binding buffer. Peptides were serially diluted in binding buffer, mixed with the protein-coupled biosensors and peptidomimetic:protein association/dissociation was monitored for 10 min at 25° C. Nonspecific binding from the signal obtained from peptidomimetic:GUS interactions was subtracted from that of peptidomimetic:ERG interactions and baseline signal drift was controlled by monitoring immobilized ERG without peptide. Octet Red analysis software was used to analyze the data."}, "[2]": {"molecular_target": "T1, ERG", "quoted_text": "This technique was applied to evaluate the target binding specificity of RI-EIPs. […] All CETSAs were performed after 3 hours treatment with the peptidomimetics at the indicated doses and temperatures."}, "[3]": {"molecular_target": "ERG protein (Homo sapiens, UniProt P11308)", "settings": "mouse, in vivo", "quoted_text": "VCaP cells were seeded in 6-well plates at 0.5×10^6 cells/ml and after allowing cells to attach, cells were harvested and homogenized in NP40 lysis buffer (Sigma) containing a complete protease inhibitor cocktail (Roche). Ten micrograms of each protein extract was boiled in SDS sample buffer, size fractionated by SDS-PAGE, and transferred onto a PVDF membrane (GE Healthcare). […] Following three washes in TBS-T, the blots were incubated with horseradish peroxidase conjugated secondary antibody and the signals visualized by enhanced chemiluminescence system according to manufacturer's instructions (GE Healthcare).\nCell pellets or tumors treated with or without the peptidomimetics were lysed in cell lysis buffer (20 mM MOPS, pH 7.0, 2 mM EGTA, 5 mM EDTA, 30 mM sodium fluoride, 60 mM β-glycerophosphate, 20 mM sodium pyrophosphate, 1 mM sodium orthovanadate, 1% Triton X-100, 1 mM DTT, protease inhibitor cocktail (Roche)). Cell lysates (0.5-1.0 mg) were pre-cleaned with protein A/G agarose beads (Santa Cruz) by incubation for 1 hour with shaking at 4° C. followed by centrifugation at 2000 rpm for 3 minute. Lysates were then incubated with 2 μg ERG antibody (Santa Cruz, C-17) at 4° C. for 4 hours with shaking prior to addition of 20 μl protein A/G agarose beads and incubated at 4° C. overnight. […] Samples were then analyzed by SDS-PAGE and Western blot analysis as described above."}, "[4]": {"test_system": "PC3 (ERG fusion-negative) xenografts", "assay": "PC3 xenograft mouse model, tumor growth", "settings": "25 mg/kg, compared to mutant peptidomimetic", "quoted_text": "Athymic Nude-Foxnlnu male mice were procured from Harlan Laboratories, Inc (Indianapolis, Ind.). All procedures involving mice were approved by the University Committee on Use and Care of Animals (UCUCA) at the University of Michigan and conformed to their relevant regulatory standards. […] Statistical significance for Kaplan-Meier analysis was determined by the log-rank (Mantel-Cox) test.\nAthymic Nude-Foxnlnu male mice were procured from Harlan Laboratories, Inc. (Indianapolis, Ind.). VCaP (2×10^6 cells) or PC3 (5×10^5 cells) were resuspended in 100 μl of saline with 50% Matrigel (BD Biosciences, Becton Drive, NJ) and implanted subcutaneously into the flank regions on both sides of the mice. Mice were anesthetized using a cocktail of xylazine (80-120 mg/kg, IP) and ketamine (10 mg/kg, IP) for chemical restraint before tumor cells implantation. For short term assays, all tumors were staged for three weeks before starting peptidomimetic treatment. […]\nTumor growth was recorded every three days using digital calipers and tumor volumes were calculated using the formula (π/6) (L×W2), where L=length of tumor and W=width. Body weight was monitored weekly over the course of the study. […] Statistical significance for Kaplan-Meier analysis was determined by the log-rank (Mantel-Cox) test. […]"}, "[5]": {"test_system": "ERG targets such as TDRD1, ARHGDIB, NDRG1 and CACNA1D", "parameters": "species or system mice", "settings": "mouse, in vivo", "method": "Total RNA was isolated from VCaP cells and tumors using Qiazol following the manufacturer's protocol (Qiagen). Quantitative PCR (QPCR) was performed using SYBR Green dye on an Applied Biosystems 7300 Real Time PCR system (Applied Biosystems) as described (Tomlins et al., 2005). Briefly, 2 μg of total RNA was reverse transcribed into cDNA using SuperScript III (Invitrogen) in the presence of random primers (Invitrogen). All reactions were performed in triplicate with SYBR Green Master Mix (Applied Biosystems) and 25 ng of forward and reverse primer according to the manufacturer's recommended thermocycling conditions, and then subjected to melt curve analysis. Threshold levels for each experiment were set during the exponential phase of the QPCR reaction using Sequence Detection Software version 1.2.2 (Applied Biosystems). The relative quantity of the target gene was calculated for each sample using the ΔΔCt method by the comparing mean Ct of the gene to the average Ct of the housekeeping gene, […] (Livak and Schmittgen, 2001). All oligonucleotide primers were synthesized by Integrated DNA Technologies (Coralville, Iowa). The primer sequences for the transcript analyzed were previously described (Brenner et al., 2011; supra)."}, "[6]": {"test_system": "VCaP cells", "parameters": "species or system chicken embryo", "settings": "in vivo, 25 mg/kg", "method": "The CAM assays were performed as described previously (Brenner et al., 2011; supra). Briefly, fertilized eggs were incubated in a rotary humidified incubator at 38° C. for 10 days. First the CAM was released by applying mild pressure to the hole over the air sac and cutting a square 1 cm^2 window encompassing a second hole near the allantoic vein. Then cultured VCaP cells that stably express Cherry Red and pre-treated with peptidomimetics as indicated were detached by trypsinization and re-suspended in complete medium and 2×10^6 cells were implanted adjacent to the mesenchyme in each egg. The windows were subsequently sealed and the eggs were returned to a stationary incubator. For invasion and intravasation experiments, implanted eggs were treated with 25 mg/kg body weight of the peptidomimetics 6 hrs after inoculation and both the upper and lower CAM were isolated after 72 hr. Invasive cells were processed and stained for chicken collagen IV as previously described (Brenner et al., 2011; supra). […] The embryonic lungs were harvested and analyzed for the presence of tumor cells by quantitative human alu-specific PCR. […] Quantification of human cells in the extracted DNA was carried out as described (van der Horst et al., Biotechniques 37, 940-942, 944, 946 2004). Fluorogenic TaqMan qPCR probes were used as described above, and DNA copy numbers were quantified."}, "[7]": {"test_system": "CD31^+ vessels", "parameters": "species or system mice", "settings": "mouse, in vivo", "description": "(M) The quantitative data of IHC staining."}, "[8]": {"test_system": "ERG and DNA-PKcs enrichment at ERG-regulated genomic loci", "type": "cell-based", "method": "VCaP cells were grown in complete medium and treated with peptidomimetics 12 hours prior to harvesting cells. ChIP assays were carried out as previously described (Brenner et al., 2011; supra; Yu et al., 2010; supra) using antibodies against ERG (Santa Cruz, # sc-354), DNA-PKcs (BD Biosciences, #610805), rabbit IgG (Santa Cruz, # sc-2027) or mouse IgG (Santa Cruz, # sc-2025). Briefly, chromatin collected from formaldehyde crosslinked and lysed cells was sonicated to an average length of 600 bp. Supernatants containing chromatin fragments were pre-cleared using protein A/G beads (Upstate) and incubated with 3-5 μg of ERG antibody or IgG overnight prior to the addition of […] of protein A/G beads for 1 hour. Antibody-bead precipitates were then washed six times and antibody/protein/DNA complexes were eluted with 150 μl IP elution buffer (50 mM […], 1% SDS). To reverse the crosslinks, the complexes were incubated in elution buffer containing 10 μg RNase A and 0.3 M NaCl at 67° C. for 4-5 hours. DNA/protein complexes were then precipitated with ethanol, air-dried, and dissolved in 100 μl of TE. Protein was then digested by incubation with proteinase K at 45° C. for 1 hour and DNA was purified using a QIAGEN PCR column according to the manufacturer's protocol. QPCR was performed using appropriate primers as previously described (Brenner et al., 2011; supra)."}}, "note": "Where a SMILES comes first, the peptide text is derived from it. [ ]: non-standard residue; d: D form.", "data": [{"smiles": "CC(C)C[C@@H](NC(=O)[C@H]1CCCN1C(=O)[C@H]1CCCN1C(=O)[C@@H](Cc1ccc(O)cc1)NC(=O)[C@@H](CC(C)C)NC(=O)[C@@H](Cc1ccccc1)NC(=O)[C@H](NC(=O)CNC(=O)CNC(=O)[C@@H](CCCNC(=N)N)NC(=O)[C@@H](CCCCN)NC(=O)[C@@H](CCCCN)NC(=O)[C@@H](CCCNC(=N)N)NC(=O)[C@@H](CCCNC(=N)N)NC(=O)[C@@H](CCC(N)=O)NC(=O)[C@@H](CCCNC(=N)N)NC(=O)[C@@H](CCCNC(=N)N)NC(=O)[C@@H](CCCNC(=N)N)NC(=O)CN)[C@H](C)O)C(=O)O", "note": "[RI-EIP1] (H-G[dR][dR][dR][dQ][dR][dR][dK][dK][dR]GG[dT][dF][dL][dY][dP][dP][dL]-OH)", "values": [{"measurement": "Kd", "setting": "[1]", "result": 940, "unit": "nM"}, {"measurement": "soluble ERG protein in VCaP versus HUVEC cells (CETSA)", "setting": "[2]", "result": "clear difference"}, {"measurement": "ERG protein in VCaP xenograft tumors", "setting": "[3]", "result": "substantial degradation"}, {"measurement": "tumor size of PC3 xenografts", "setting": "[4]", "result": "no difference in tumor size"}, {"measurement": "gene expression of ERG targets in VCaP tumors", "setting": "[5]", "result": "inhibited"}, {"measurement": "ERG-mediated invasion and intravasation", "setting": "[6]", "result": "dramatically blocked"}, {"measurement": "angiogenesis by number of CD31^+ vessels in FFPE sections", "setting": "[7]", "result": "did not alter angiogenesis"}, {"measurement": "ERG and DNA-PKcs enrichment at ERG-regulated genomic loci", "setting": "[8]", "result": "inhibits"}]}]}
